Experiments:
ARPE-19 cells [1] = assay: ELISA of secreted VEGF, IL-6, IL-8 in conditioned medium; type: cell-based; conditions: 6 μM 7KCh alone or with 1 μM fatty acid, 48 hr
Description: (§1) FIGS. 16A-16E depict the secreted protein levels of (A) VEGF, (B) IL-6, and (C) IL-8 were measure by ELISA 48 hr after treatment with 6 μM 7KCh, 1 μM sterculic acid, 1 μM stearic acid, or the combinations of 7KCh with either sterculic acid or stearic acid. Error bars indicate the standard deviations. *p<0.05 comparing to 7KCh, n=3. Two-tailed Student's t-test. The expressions of GRP78 and CHOP were shown by immunoblots (D) 24 hr or (E) 48 hr after treatment with 8 μM 7KCh, 1 μM sterculic acid, 1 μM stearic acid, or the combinations of 7KCh with either sterculic acid or stearic acid.
(§2) ARPE-19 cells were seeded in 24-well plates with 1×10^5 cells per well and allowed to recover for 16-24 hr. Once confluency reached approximately 90%, the effect of the fatty acids against 7KCh-mediated cell death was examined 24 hr after incubation in serum-free medium with 12 μM 7KCh. Fatty acids were tested at 0.1, 0.5, 1, 5 and 10 μM concentrations. The effects of the fatty acids against 7KCh-mediated inflammation and ER stress were examined by incubating cells in 1 μM fatty acids with either 8 μM 7KCh (24 hr for quantitative real-time PCR (qRT-PCR), 24 and 48 hr for immunoblot), or 6 μM 7KCh for 48 hr (for ELISA). Three individual experiments were performed for each treatment with quadruplicate measurements performed for each experiment in 24-well plates.
The levels of secreted VEGF, IL-6, IL-8, and TNF-α in conditioned medium of ARPE-19 cell cultures were measured 48 hr after treatments of 6 μM 7KCh and 1 μM fatty acids using the Quantkine ELISA kits from R&D systems (Minneapolis, Minn.). The protein levels were measured in triplicates. The ELISA results were quantified using an Envision multilable plate reader (PerkinElmer, Covina, Calif.) and presented in percentage relative to the vehicle-only control.

ARPE-19 cells [2] = assay: Immunoblots of CHOP and GRP78; type: cell-based; conditions: 1 μM + 8 μM 7KCh
Description: as §1, §2
Lysis of ARPE-19 cells was performed using MPER buffer solution (Thermo Fisher Scientific) containing Complete Protease Inhibitor Cocktail (Roche Diagnostics). A total of 10 μg protein samples of the cell lysate were separated by SDS-PAGE on 10% Bis-Tris gels (Invitrogen). The gels were blotted on to nitrocellulose membranes (Invitrogen). The proteins were probed with primary antibodies for CHOP (1:1000 dilution), GRP78 (1:1000), or GAPDH (1:2000) at 4° C. overnight. The membranes were then further incubated with anti-rabbit IgG, HRP-linked antibodies (1:2000 dilution) at room temperature for 1 hr. […]

ARPE19 cells = assay: Cell Counting Kit-8 viability assay, 15 μM 7KCh-induced cytotoxicity; conditions: 1 μM fatty acid + 15 μM 7KCh
Description: 4×10^4 cells were seeded onto wells of a 96 well plate. […] Cell viability was determined as celluar dehydrogenase activity and expressed as the percentage of compound treated cells relative to that of untreated controls. error bar: standard deviation, n=4.
The kit allows sensitive colorimetric assays for the determination of the number of viable cells in cell proliferation and cytotoxicity assays. The amount of the formazan dye generated by the activity of dehydrogenases in cells is directly proportional to the number of living cells.
1) Cells were cultivated in a 96 well cell plate (Costar#3599, Corning Incorp, Corning, N.Y.).
2) The cell suspension (40,000 cells/100 μL) were added to 100 μL culture media per well and stood for 15 min at room temperature and cultured at 37° C. in a humidified 5% CO2 atmosphere.
3) Approximately 19 hr after seeding, when the cells were fully confluent, the cells were treated with either DMSO or 1 μM fatty acid in 200 μL of serum free media and subsequently added with 15 μM 7KCh in HPBCD. Then, the plate was swirled for mixing. The cells were also treated with DMSO and HPBCD, which served as vehicle control. The final DMSO and HPBCD concentrations in the media were in the range of 0.1% and 0.0675%, respectively.
Cell viability was expressed as the percentage of compound treated cells relative to that of untreated controls. Prior to measure cell viability, the cells were imaged live by Nikon TE 2000-U inverted fluorescent microscope.

CCCCCCCCC1=C(CCCCCCCC(=O)O)C1 [sterculic acid, 8-(2-octacyclopropen-1-yl)octanoic acid]
secreted IL-6 protein expression (ARPE-19 cells [1]): 1.4 fold
secreted IL-8 protein expression (ARPE-19 cells [1]): 1.1 fold
secreted VEGF protein expression (ARPE-19 cells [1]): 1.1 fold
effect on 7KCh-induced CHOP and GRP78 protein expression (ARPE-19 cells [2]; 24 hr): completely inhibited
inhibitory effect on CHOP and GRP78 protein expression (ARPE-19 cells [2]; after 48 hr): seems to decrease
protective effect against cytotoxicity by 7KCh (summary of the viability assays) (ARPE19 cells): greatest protective effect

From patent US8993626B2, “Methods of treatment using sterculic acid” (The United States of America, as represented by the …, priority 2010, dated 2015)
